The numbers were not newly measured in patent US10653698B2, “Methods of improving myocardial performance in Fontan patients using udenafil compositions” (priority 2014, dated 2020), which cites them from elsewhere.

The subject of series [1] is children and young adults with single-ventricle physiology after the Fontan operation. The note with it: Shabanian et al. 2013; cited from earlier work.
Series [2] deals with patients with Fontan circulation. The note with it: short term, once daily dosing; cited from earlier work.

For `CCCc1nn(C)c2c(=O)[nH]c(-c3cc(S(=O)(=O)N4CCN(C)CC4)ccc3OCC)nc12` [sildenafil], in series [1], the ventricular systolic elastance entry was “increased” and the ventriculo-arterial coupling entry is recorded as “improved”.
On to `CN1CC(=O)N2[C@H](c3ccc4c(c3)OCO4)c3[nH]c4ccccc4c3C[C@@H]2C1=O` [tadalafil], for which, in series [2], the exercise capacity entry is listed as “unchanged”; the “ventilatory efficiency and oxygen saturation” value was “improved”.
